{"source": "patent EP0731710B1", "about": "“THYMOSINE ALPHA 1 CONTAINING COMPOSITIONS FOR THE TREATMENT OF PATIENTS HAVING DECOMPENSATED LIVER DISEASE” (ALPHA 1 BIOMEDICALS, INC., priority 1993, dated 2003)", "experiment": "Tolerability / adverse effects of Thymosin alpha 1 in patients with cirrhosis and hepatic decompensation", "assay_type": "in vivo, patient", "description": "Patient 2 was a person with very far-advanced cirrhosis secondary to long-standing chronic Hepatitis B infection. Their findings included jaundice, weakness, severe encephalopathy, hepato-renal syndrome with renal failure, and portal gastropathy secondary to increased portal vein pressure. They received Thymosin alpha 1 at a dose of 1.6 mg subcutaneously twice weekly under a compassionate use protocol in an attempt to cure their Hepatitis B virus infection so that they could received a liver transplant. […] Death was associated with complications of portal hypertension and cirrhosis, and not due to therapy with Thymosin alpha 1.\nThey were started on Thymosin alpha 1 at a dose of 1.6 mg subcutaneously twice weekly, with the intention of treating them for 26 weeks. […] However, their therapy was discontinued after 46 injections because of complications of the cirrhosis. They expired about three weeks after their last injection. Their death was attributed to bleeding esophageal varices and hepatoma.\nIn summary, the above three patients with cirrhosis and hepatic decompensation received Thymosin alpha 1 at a dose of 1.6 mg subcutaneously twice weekly for periods varying from 3.5 weeks to 6 months. In each case, the intent of therapy was to cure chronic Hepatitis B virus infection so that the patient could be considered for transplant. […] Two other patients, both of whom had far-advanced disease, died of complications of cirrhosis, with no evidence that Thymosin alpha 1 contributed to their deaths.", "note": "No end group written: not given here."}
{"substance": "Ac-SDAAVDTSSEITTKDLKEKKEVVEEAEN [Thymosin alpha 1]", "values": [{"measurement": "side effects", "setting": "Patient 2, 1.6 mg subcutaneously twice weekly, 3 1/2 weeks of therapy", "value": "no side effects"}, {"measurement": "adverse effects", "setting": "Patient 3, 1.6 mg subcutaneously twice weekly, 46 injections", "value": "no adverse effects"}, {"measurement": "adverse effects due to Tα1", "setting": "three patients with cirrhosis and hepatic decompensation, 1.6 mg subcutaneously twice weekly for 3.5 weeks to 6 months", "value": "None of the patients reported any adverse effects"}]}
